{"source": "the NIST ThermoML archive (doi:10.1016/j.tca.2009.06.018)", "note": "Numbers after ± are expanded uncertainties."}
{"details": "Crystal; DTA", "units": {"Normal melting temperature": "°C"}}
{"smiles": "CCCCCCCCCC(=O)O", "note": "[decanoic acid]", "Normal melting temperature": "32.31 ± 0.5"}
{"smiles": "CCCCCCCCCCCC(=O)O", "note": "[dodecanoic acid]", "Normal melting temperature": "44.92 ± 0.5"}
{"smiles": "CCCCCCCCCCCCCCCC(=O)O", "note": "[hexadecanoic acid]", "Normal melting temperature": "64.07 ± 0.5"}
{"smiles": "CCCCCCCCCCCCCCCCCC(=O)O", "note": "[octadecanoic acid]", "Normal melting temperature": "70.83 ± 0.5"}
{"smiles": "CCCCCCCC(=O)O", "note": "[octanoic acid]", "Normal melting temperature": "16.48 ± 0.5"}
{"smiles": "CCCCCCCCCCCCCC(=O)O", "note": "[tetradecanoic acid]", "Normal melting temperature": "55.73 ± 0.5"}
